Here are results for five compounds from patent US20040229950A1, “Method and composition with conjugated linoleic acid esters” (priority 2002, published 2004).

By inhibition is commonly meant the share of the control response that was lost under treatment.

Each structure is given as a SMILES string. Where “and” joins values, the source holds several entries; their conditions need not be identical. Equal values may be shown once.

Test [1] deals with Human platelets. Briefly: TXB2 production by platelets pretreated 1 hour with fatty acid/HSA. The class given is cell-based. On the procedure:
(§1) The following example illustrates the effect of CLA incorporation into platelet lipids on stimulating the release of endogenous AA and increasing the formation of TXB2. Platelets were prelabeled with either HSA alone or with 25 μM 9Z, 11Z-CLA/HSA for 1 hour at 37° C. After washing, the platelets were incubated for 15 minutes at room temperature, followed by the removal of the supernatants. The supernatants were then assayed for free […] content and TXB2 production. […] When the results of these three experiments are averaged, platelets treated with 9Z, 11Z-CLA stimulated […] release 414±155% and enhanced TXB2 formation 180±30%.
To compare the stimulatory effect of 9Z, 11Z-CLA on platelet TXB2 formation with other fatty acids, platelets were pretreated for 1 hour with HSA (control), or HSA complexed with either 9Z, 11Z-CLA, 9E,11E-CLA, linoleic acid (LA) or stearic acid (SA). The comparative effects of 25 μM 9Z, 11Z-CLA-, 9E, 11E-CLA-, LA- or SA-treated platelets on platelet TXB2 production is shown is FIG. 1. The values are the mean ±SD.

Test [2] relates to Human platelets. Briefly: TXB2 formation by platelets treated 2 hours with CLA isomer/HSA. The note with it: 25 μM, 2 hours at 37° C.; for TXB2 formation Fold stimulation: mean ± SD, 4 experiments. It is filed as cell-based. The method, then: Human platelets were treated for 2 hours at 37° C. with either HSA complexed with 25 μM of the indicated CLA isomer or with HSA alone. After washing, the platelets were maintained at room temperature for 15 minutes. The supernatants were then removed, the lipid content extracted with chloroform/methanol and the residue, after TLC separation, assayed for TXB2 formation by EIA. The results shown in Table 2 were similar to those obtained with CLA-prelabeled HUVECs. […] Also shown in Table 2 is that the CLA content of the platelet lipids increased from 0.03% to 0.23% after platelet treatment with 9Z, 11Z-CLA/HSA and to 0.66% after 10E, 12Z-CLA/HSA.

Test [3] relates to IL-1β-treated HUVECs. Briefly: 6-ketoPGF1a production from CLA-prelabeled HUVECs. The class given is cell-based, human. The following applies: 25 μM; for HUVEC 6-ketoPGF1a formation fold-stimulation: overnight prelabeling, 15 minutes incubation, mean ± SD, 4 experiments; for range of fold increase in endogenous 6-ketoPGF1a formation: range over four separate experiments. The method, then:
(§2) The following example illustrates the effect of CLA incorporation on 6-ketoPGF1a production from CLA-enriched HUVECs. Following the procedure described by Bordet (1990), IL-1β-treated HUVECs were first pre-enriched during an overnight incubation with human serum albumin (HSA) complexed with either 25 […] 9Z, 11Z-CLA/HSA, 25 μM 10E, 12Z-CLA/HSA or without added fatty acid (control). […] Insignificant differences in cell viabilities (as measured by LDH release) were observed between control cells and cells pretreated with HSA/CLA. After washing, the cells were incubated for 15 minutes, followed by removal of the supernatants, which were then assayed for 6-ketoPGF1a content by EIA. In four separate experiments, control HUVECs produced and released 42-1000 pg/ml of 6-ketoPGF1a.

The test system of test [4] is Human platelets. The test can be described thus: Release of endogenous AA from platelets prelabeled with CLA/HSA. It is filed as cell-based. The method, then: as §1
Test [5] concerns human umbilical vein endothelial cells (HUVECs). The test can be described thus: Inhibition of HUVEC 6-ketoPGF1a (PGI2) production by CLA in free fatty acid form. The note with it: CLA in the free fatty acid form. It is filed as cell-based. On the procedure:
As a consequence, the patent disclosed the use of CLAs to inhibit platelet thromboxane formation or platelet aggregation. […] All of these studies relate to the use of conjugated linoleic acids in the free fatty acid form.
as §2

The mark [6] stands for this setting: 25 μM, 1 hour pretreatment, versus HSA control, Example 2.
Setting [7] is: experiment 1, 25 μM, 1 hour at 37° C.

Regarding `CCCCCCCCCCCCCCCCCC(=O)O` [SA, stearic acid, reference compound], in test [1] (setting [6]), the “stimulation of platelet TXB2 production (FIG. 1)” value (shortened to “stimulation … (FIG. 1)”) is on record as “did not show an appreciable effect”.
For the compound `CCCCCCC=CC=CCCCCCCCC(=O)O` [9Z, 11Z-CLA, 9,11-octadecadienoic acid], the “TXB2 formation Fold stimulation” value in test [2] is 2.3 fold and 2.3 ± 1.0 (4) fold. The “fold increase in TXB2 formation” value in test [1] (25 μM prelabeling, relative to HSA/platelet controls) is 2-4 fold and 2 fold. The “TXB2 Control (%)” value in test [1] (25 μM, 1 hour at 37° C., single experiments No. 1-3, relative to HSA alone, listed as HSA + ZZ) is 146% and 192% and 203%. The “stimulation … (FIG. 1)” value in test [1] (setting [6]) was 4 fold. Also, the activity at 25 µM turned out to be 180 ± 30% in test [1] (Homo sapiens, Platelet, 25 μM, 1 hour, mean ± S.D. of three experiments, read-out: TXB2 formation, % of control, summary of experiments #1-3) and 414 ± 155% in test [4] (Homo sapiens, Platelet, 1 hour, mean ± S.D. of three experiments, read-out: AA release, % of control, summary of experiments #1-3). For the same compound, in test [1] (setting [7]), the TXB2 formation turned out to be 0.36 ng/mL. Besides, the “HUVEC 6-ketoPGF1a formation fold-stimulation” value in test [3] turned out to be 8 fold; in test [3] (listed as 9Z, 11Z), 8.1 ± 10 fold. Also, the “range of fold increase in endogenous 6-ketoPGF1a formation” value in test [3] is on record as 1.9-23 fold. Also, in test [4] (setting [7]), the AA release came out at 27 µg/mL. Further, the “inhibition of HUVEC 6-ketoPGF1a / prostacyclin production” value in test [5] is given as “but not 9Z, 11Z-CLA isomer, was an effective inhibitor”.
For the compound `CCCCCCC=CC=CCCCCCCCC(=O)O` [9E, 11E-CLA, 9,11-octadecadienoic acid], the inhibition at 25 µM in test [1] (Homo sapiens, Platelet, 25 μM, 1 hour pretreatment, versus HSA control, Example 2, read-out: inhibition of TXB2 formation (FIG. 1)) came out at 37%.
Consider `CCCCC/C=C\C/C=C\CCCCCCCC(=O)O` [LA, linoleic acid], for which, in test [1] (setting [6]), the “stimulation … (FIG. 1)” value was “did not show an appreciable effect”.
For the compound `CCCCCC=CC=CCCCCCCCCC(=O)O` [10E, 12Z-CLA, 10,12-octadecadienoic acid], in test [2], the “increase in formation and release of TXB2” value turned out to be 30%; the “TXB2 formation Fold stimulation” value was 1.3 ± 0.41 (4) fold. In addition, in test [3], the “HUVEC 6-ketoPGF1a formation fold-stimulation” value came to 3 fold and the “range of fold increase in endogenous 6-ketoPGF1a formation” value is listed as 1.5-7.5 fold. Also, the “HUVEC 6-ketoPGF1a formation fold-stimulation” value in test [3] (listed as 10E, 12Z) came to 3.5 ± 2.7 fold. For the same compound, the “HUVEC 6-ketoPGF1a formation fold-stimulation” value in test [3] (listed as 10E, 12Z isomer) is given as “not quite half as effective”. Moreover, the “inhibition of HUVEC 6-ketoPGF1a / prostacyclin production” value in test [5] is on record as “effective inhibitor”.
